From PubChem BioAssay (NCI)
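Growth conditions: 96-well plates. Treatment: test compound, 48 hours, 5 concentrations. Analysis: linear interpolation between bracketing concentrations; unreached endpoints set to highest concentration. GI50 marks 50% less growth. TGI is the concentration that stops growth completely.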

How the values were obtained:
Experiment in all cases: DTP human tumour cell line panel, 48 h
[1] = system: MOLT-4 leukemia
[2] = system: SNB-75 CNS
[3] = system: MALME-3M melanoma
[4] = system: K-562 leukemia
[5] = system: SW-620 colon
[6] = system: CCRF-CEM leukemia
[7] = system: T-47D breast
[8] = system: ACHN renal
[9] = system: SK-MEL-2 melanoma
[10] = system: OVCAR-4 ovarian
[11] = system: SK-MEL-28 melanoma
[12] = system: SR leukemia
[13] = system: SK-MEL-5 melanoma
[14] = system: OVCAR-5 ovarian
[15] = system: MCF7 breast
[16] = system: HL-60(TB) leukemia
[17] = system: MDA-MB-435
[18] = system: NCI-H23 lung
[19] = system: NCI-H460 lung
[20] = system: A549 NSCLC
[21] = system: SF-268 CNS
[22] = system: COLO 205 colon
[23] = system: CAKI-1 renal
[24] = system: UACC-62 melanoma
[25] = system: NCI/ADR-RES ovarian
[26] = system: SK-OV-3 ovarian
[27] = system: U251 CNS
[28] = system: M14 melanoma
[29] = system: IGROV1 ovarian
[30] = system: 786-0 renal
[31] = system: RPMI-8226 leukemia
[32] = system: RXF 393 renal
[33] = system: HOP-62 NSCLC
[34] = system: HCT-15 colon
[35] = system: OVCAR-3 ovarian
[36] = system: KM12 colon
[37] = system: BT-549 breast
[38] = system: HT29 colon
[39] = system: HCT-116 colon
[40] = system: OVCAR-8 ovarian
[41] = system: SN12C renal
[42] = system: HOP-92 NSCLC
[43] = system: SF-295 CNS
[44] = system: SF-539 CNS
[45] = system: EKVX NSCLC
[46] = system: SNB-19 CNS
[47] = system: LOX IMVI melanoma
[48] = system: UO-31 renal
[49] = system: TK-10 renal
[50] = system: A498 renal
[51] = system: DU-145 prostate
[52] = system: MDA-MB-231 breast
[53] = system: NCI-H226 lung
[54] = system: UACC-257 melanoma
[55] = system: PC-3 prostate

O=C1c2ccccc2-c2nnc(-c3ccccc3)cc21
TGI [1]: > 10 µM | TGI [2]: > 10 µM | TGI [3]: > 10 µM | TGI [4]: > 10 µM | TGI [5]: > 10 µM | TGI [6]: > 10 µM | TGI [7]: > 10 µM | TGI [8]: > 10 µM | TGI [9]: > 10 µM | TGI [10]: > 10 µM | TGI [11]: > 10 µM | TGI [12]: > 10 µM | TGI [13]: > 10 µM | TGI [14]: > 10 µM | TGI [15]: > 10 µM | TGI [16]: > 10 µM | TGI [17]: > 10 µM | TGI [18]: > 10 µM | TGI [19]: > 10 µM | TGI [20]: > 10 µM | TGI [21]: > 10 µM | TGI [22]: > 10 µM | TGI [23]: > 10 µM | TGI [24]: > 10 µM | TGI [25]: > 10 µM | TGI [26]: > 10 µM | TGI [27]: > 10 µM | TGI [28]: > 10 µM | TGI [29]: > 10 µM | TGI [30]: > 10 µM | TGI [31]: > 10 µM | TGI [32]: > 10 µM | TGI [33]: > 10 µM

Nc1cc(-c2ccccc2)ccc1O
GI50 [1]: 51.9 µM | TGI [1]: > 100 µM | GI50 [2]: > 100 µM | TGI [2]: > 100 µM | GI50 [34]: 68.7 µM | TGI [34]: > 100 µM | GI50 [35]: 68.8 µM | TGI [35]: > 100 µM | GI50 [3]: > 100 µM | TGI [3]: > 100 µM | GI50 [4]: > 100 µM | TGI [4]: > 100 µM | GI50 [36]: 58.4 µM | TGI [36]: > 100 µM | GI50 [5]: > 100 µM | TGI [5]: > 100 µM | GI50 [6]: 23.2 µM | TGI [6]: > 100 µM | GI50 [7]: 55.3 µM | TGI [7]: > 100 µM | GI50 [37]: 79.3 µM | TGI [37]: > 100 µM | GI50 [8]: 54.6 µM | TGI [8]: > 100 µM | GI50 [38]: > 100 µM | TGI [38]: > 100 µM | GI50 [9]: > 100 µM | TGI [9]: > 100 µM | GI50 [10]: 36.5 µM | TGI [10]: > 100 µM | GI50 [39]: 54.6 µM | TGI [39]: > 100 µM | GI50 [11]: > 100 µM | TGI [11]: > 100 µM | GI50 [40]: > 100 µM | TGI [40]: > 100 µM | GI50 [12]: 33.9 µM | TGI [12]: > 100 µM | GI50 [41]: 68.9 µM | TGI [41]: > 100 µM | GI50 [42]: > 100 µM | TGI [42]: > 100 µM | GI50 [13]: > 100 µM | TGI [13]: > 100 µM | GI50 [14]: > 100 µM | TGI [14]: > 100 µM | GI50 [43]: 55.2 µM | TGI [43]: > 100 µM | GI50 [15]: > 100 µM | TGI [15]: > 100 µM | GI50 [16]: 45.4 µM | TGI [16]: > 100 µM | GI50 [44]: > 100 µM | TGI [44]: > 100 µM | GI50 [17]: > 100 µM | TGI [17]: > 100 µM | GI50 [18]: > 100 µM | TGI [18]: > 100 µM | GI50 [19]: > 100 µM | TGI [19]: > 100 µM | GI50 [45]: 82.2 µM | TGI [45]: > 100 µM | GI50 [46]: > 100 µM | TGI [46]: > 100 µM | GI50 [20]: > 100 µM | TGI [20]: > 100 µM | GI50 [21]: 65.5 µM | TGI [21]: > 100 µM | GI50 [22]: > 100 µM | TGI [22]: > 100 µM | GI50 [47]: 62.9 µM | TGI [47]: > 100 µM | GI50 [23]: 17.9 µM | TGI [23]: 79.9 µM | GI50 [48]: 34 µM | TGI [48]: > 100 µM | GI50 [24]: 37.3 µM | TGI [24]: > 100 µM | GI50 [49]: > 100 µM | TGI [49]: > 100 µM | GI50 [25]: 45 µM | TGI [25]: > 100 µM | GI50 [26]: > 100 µM | TGI [26]: > 100 µM | GI50 [50]: 22.7 µM | TGI [50]: > 100 µM | GI50 [51]: 82.3 µM | TGI [51]: > 100 µM | GI50 [52]: 7.32 µM | TGI [52]: > 100 µM | GI50 [27]: > 100 µM | TGI [27]: > 100 µM | GI50 [28]: > 100 µM | TGI [28]: > 100 µM | GI50 [53]: > 100 µM | TGI [53]: > 100 µM | GI50 [29]: > 100 µM | TGI [29]: > 100 µM | GI50 [30]: > 100 µM | TGI [30]: > 100 µM | GI50 [32]: > 100 µM | TGI [32]: > 100 µM | GI50 [54]: > 100 µM | TGI [54]: > 100 µM | GI50 [33]: > 100 µM | TGI [33]: > 100 µM | GI50 [55]: 21.6 µM | TGI [55]: > 100 µM
